According to patent US11566007B2, “Ras inhibitors” (Revolution Medicines, Inc., priority 2019, dated 2023):
pEC50, pIC50: −log10 of the molar value.

Experiments:
KRAS G13D = KRAS G13D (Homo sapiens (Human), UniProt P01116+P62937, G13D); assay: Ras-Raf (BRAF RBD) disruption / FRET / MOA assay, KRAS G13D; format: biochemical; conditions: read-out: IC50* KRAS G13D FRET data
Outline: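 A 10-point, 3-fold dilution series topping at 30 μM final was incubated 3 h at 25° C with the Ras/cyclophilin A/BRAF RBD mixture.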

[1] = test system: NCI-H358 cells (K-Ras G12C); assay: Potency assay: pERK in NCI-H358 cells; format: cell-based, human; conditions: Homo sapiens, NCI-H358; H358 KRAS G12C; read-out: pERK EC50
Outline: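 pERK decrease read by AlphaLISA SureFire p-ERK1/2 or In-Cell Western after 4 h compound exposure at 37 °C, 5% CO2.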

KRAS G13D, sequence (P01116-2 other isoform, or with tags, fused parts or gaps G13D): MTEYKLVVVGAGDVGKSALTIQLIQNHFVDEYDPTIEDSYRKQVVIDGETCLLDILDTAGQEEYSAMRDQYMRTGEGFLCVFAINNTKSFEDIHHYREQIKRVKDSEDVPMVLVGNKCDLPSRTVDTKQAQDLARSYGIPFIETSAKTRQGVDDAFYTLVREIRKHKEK
KRAS G13D, sequence (P62937 whole entry): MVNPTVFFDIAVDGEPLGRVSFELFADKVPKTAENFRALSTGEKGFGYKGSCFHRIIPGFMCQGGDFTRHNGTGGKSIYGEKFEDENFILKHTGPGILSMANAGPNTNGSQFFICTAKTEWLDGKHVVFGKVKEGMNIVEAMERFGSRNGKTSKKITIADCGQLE

SMILES | pIC50 (KRAS G13D) | pEC50 [1]
CCn1c(-c2cccnc2[C@H](C)OC)c2c3cc(ccc31)-c1csc(n1)C[C@H](NC(=O)C[C@@H]1COC3(CN(C(=O)C#CC(C)(C)N(C)C)C3)O1)C(=O)N1CCC[C@H](N1)C(=O)OCC(C)(C)C2 (atropisomer, axis not shown) [Example A691] | 5.00 to 6.00 | > 5.30
CCn1c(-c2cccnc2[C@H](C)OC)c2c3cc(ccc31)-c1cnc(o1)C[C@H](NC(=O)[C@H](C(C)C)N(C)C(=O)[C@H]1CCN(C(=O)C#CC(C)(C)N(C)C)C1)C(=O)N1CCC[C@H](N1)C(=O)OCC(C)(C)C2 (atropisomer, axis not shown) [Example A692, (3S)-1-(4-(dimethylamino)-4-methylpent-2-ynoyl)-N-((2S)-1-(((6^3S,4S)-1^1-ethyl-1^2-(2-((S)-1-methoxyethyl)pyridin-3-yl)-10,10-dimethyl-5,7-dioxo-6^1,6^2,6^3,6^4,6^5,6^6-hexahydro-1^1H-8-oxa-2(5,2)-oxazola-1(5,3)-indola-6(1,3)-pyridazinacycloundecaphane-4-yl)amino)-3-methyl-1-oxobutan-2-yl)-N-methylpyrrolidine-3-carboxamide] | < 5.00 | > 5.30
C=CC(=O)N1CCOC2(CCN(C(=O)N(C)[C@H](C(=O)N[C@H]3Cc4nc(cs4)-c4ccc5c(c4)c(c(-c4cccnc4[C@H](C)OC)n5CC)CC(C)(C)COC(=O)[C@@H]4CCCN(N4)C3=O)C(C)C)CC2)C1 (atropisomer, axis not shown) [Example A695] | 6.00 to 7.00 | > 5.30
C=CC(=O)N1CCC2(CC1)CCN(C(=O)N(C)[C@H](C(=O)N[C@H]1Cc3nc(cs3)-c3ccc4c(c3)c(c(-c3cccnc3[C@H](C)OC)n4CC)CC(C)(C)COC(=O)[C@@H]3CCCN(N3)C1=O)C(C)C)CC2 (atropisomer, axis not shown) [Example A697] | 6.00 to 7.00 | > 5.30
C=CC(=O)N1CCC(F)(C(=O)N(C)[C@H](C(=O)N[C@H]2Cc3nc(cs3)-c3ccc4c(c3)c(c(-c3cccnc3[C@H](C)OC)n4CC)CC(C)(C)COC(=O)[C@@H]3CCCN(N3)C2=O)C(C)C)CC1 (atropisomer, axis not shown) [Example A700] | 6.00 to 7.00 | > 5.30
C=CC(=O)N1CCO[C@H]2CN(C(=O)N(C)[C@H](C(=O)N[C@H]3Cc4nc(cs4)-c4ccc5c(c4)c(c(-c4cccnc4[C@H](C)OC)n5CC)CC(C)(C)COC(=O)[C@@H]4CCCN(N4)C3=O)C(C)C)C[C@H]21 (atropisomer, axis not shown) [Example A706] | 5.00 to 6.00 | > 5.30
CO[C@@H](C)c1ncccc1-c1c2c3cc(ccc3n1CC(F)(F)F)-c1cnc(o1)C[C@H](NC(=O)[C@H](C(C)C)N(C)C(=O)[C@H]1CCN(C(=O)C#CC(C)(C)N(C)C)C1)C(=O)N1CCC[C@H](N1)C(=O)OCC(C)(C)C2 (atropisomer, axis not shown) [Example A707] | 5.00 to 6.00 | > 5.30
CO[C@@H](C)c1ncccc1-c1c2c3nc(ccc3n1CC(F)(F)F)-c1cccc(c1)C[C@H](NC(=O)[C@@H](COC1CN(C(=O)C#CC(C)(C)N(C)C)C1)C(C)C)C(=O)N1CCC[C@H](N1)C(=O)OCC(C)(C)C2 (atropisomer, axis not shown) [Example A724] | < 5.00 | > 5.30
CCn1c(-c2cccnc2[C@H](C)OC)c2c3cc(ccc31)-c1cccc(c1)C[C@H](NC(=O)[C@H](C(C)C)N1CO[C@@]3(CCN(C(=O)C#CC(C)(C)N4CCC4)C3)C1=O)C(=O)N1CCC[C@H](N1)C(=O)OCC(C)(C)C2 (atropisomer, axis not shown) [Example A733] | < 5.00 | > 5.30
C=CC(=O)N1CCN(C(=O)N(C)[C@H](C(=O)N[C@H]2Cc3nc(cs3)-c3ccc4c(c3)c(c(-c3cccnc3[C@H](C)OC)n4CC)CC(C)(C)COC(=O)[C@@H]3CCCN(N3)C2=O)C(C)C)[C@@H]2C[C@@H]21 (atropisomer, axis not shown) [Example A736] | 6.00 to 7.00 | > 5.30
C=CC(=O)C1CC[C@H](C(=O)N(C)[C@H](C(=O)N[C@H]2Cc3cc(O)cc(c3)-c3ccc4c(c3)c(c(-c3cnn(C)c3[C@H](C)OC)n4CC)CC(C)(C)COC(=O)[C@@H]3CCCN(N3)C2=O)C(C)C)C1 (stereo partly shown) [Example A166] | 5.00 to 6.00 | > 5.30
C=CC(=O)N1CC[C@H](C(=O)N(C)[C@H](C(=O)N[C@H]2Cc3cc(O)cc(c3)-c3ccc4c(c3)c(c(-c3cncc5c3[C@@H](OC)CC5)n4CC)CC(C)(C)COC(=O)[C@@H]3CCCN(N3)C2=O)C(C)C)C1 [Example A275] | 6.00 to 7.00 | > 5.30
C=CC(=O)N1CC[C@H](C(=O)N(C)[C@H](C(=O)N[C@H]2Cc3nc(ns3)-c3ccc4c(c3)c(c(-c3cncnc3)n4CC)CC(C)(C)COC(=O)[C@@H]3CCCN(N3)C2=O)C(C)C)C1 [Example A285] | < 5.00 | > 5.30
C=CC(=O)N1CC[C@H](C(=O)N(C)[C@H](C(=O)N[C@H]2Cc3cc(O)cc(c3)-c3ccc4c(c3)c(c(-c3cnn5c3[C@@H](OC)CCC5)n4CC)CC(C)(C)COC(=O)[C@@H]3CCCN(N3)C2=O)C(C)C)C1 [Example A300] | 7.00 to 8.00 | > 5.30
CCn1c(-c2cccnc2[C@H](C)OC)c2c3cc(ccc31)-c1cccc(c1)C[C@H](NC(=O)C(COC1CN(C(=O)C#CC(C)(C)N(C)C)C1)C(C)C)C(=O)N1CCC[C@H](N1)C(=O)OCC(C)(C)C2 (stereo partly drawn) [Example A316, (2R)-2-(((1-(4-(dimethylamino)-4-methylpent-2-ynoyl)azetidin-3-yl)oxy)methyl)-N-((6^3S,4S)-1^1-ethyl-1^2-(2-((S)-1-methoxyethyl)pyridin-3-yl)-10,10-dimethyl-5,7-dioxo-6^1,6^2,6^3,6^4,6^5,6^6-hexahydro-1^1H-8-oxa-1(5,3)-indola-6(1,3)-pyridazina-2(1,3)-benzenacycloundecaphane-4-yl)-3-methylbutanamide] | < 5.00 | > 5.30
C=CC(=O)N1CCC(C(=O)N(C)[C@H](C(=O)N[C@H]2Cc3cc(CF)cc(c3)-c3ccc4c(c3)c(c(-c3cccnc3[C@H](C)OC)n4CC(F)(F)F)CC(C)(C)COC(=O)[C@@H]3CCCN(N3)C2=O)C(C)C)C1 (stereo partly shown) [Example A659] | 6.00 to 7.00 | > 5.30
CCn1c(-c2cccnc2[C@H](C)OC)c2c3cc(ccc31)N1CCO[C@@H](C[C@H](NC(=O)[C@H](C(C)C)N(C)C(=O)[C@@]3(F)CCC(C(=O)C#CC(C)(C)N4CCC4)C3)C(=O)N3CCC[C@H](N3)C(=O)OCC(C)(C)C2)C1 (stereo partly shown) [Example A726] | 5.00 to 6.00 | > 5.30
